Three compounds from ChEMBL document CHEMBL3596185, “Combining Mass Spectrometric Metabolic Profiling with Genomic Analysis: A Powerful Approach for Discovering Natural Products from Cyanobacteria” (J Nat Prod, 2015) can be followed below.

For one assay, the target named is Cannabinoid receptor 2 (Homo sapiens, UniProt P34972). In words: Displacement of [3H]-CP55940 from human recombinant CB2 receptor expressed in HEK293 cells after 90 mins by scintillation counting analysis. Format: cell-based. (Loss of bound radioactivity is the signal in a displacement assay; it reports binding, not function.)
The species named for the next assay is Homo sapiens. The assay can be described thus: Selectivity ratio of Ki for human recombinant CB2 receptor to Ki for human recombinant CB1 receptor.
The next assay has as its target Cannabinoid receptor 1 (Homo sapiens, UniProt P21554). In words: Displacement of [3H]-CP55940 from human recombinant CB1 receptor expressed in HEK293 cells after 90 mins by scintillation counting analysis. Format: cell-based.

Chain of Cannabinoid receptor 1 (P21554 whole entry): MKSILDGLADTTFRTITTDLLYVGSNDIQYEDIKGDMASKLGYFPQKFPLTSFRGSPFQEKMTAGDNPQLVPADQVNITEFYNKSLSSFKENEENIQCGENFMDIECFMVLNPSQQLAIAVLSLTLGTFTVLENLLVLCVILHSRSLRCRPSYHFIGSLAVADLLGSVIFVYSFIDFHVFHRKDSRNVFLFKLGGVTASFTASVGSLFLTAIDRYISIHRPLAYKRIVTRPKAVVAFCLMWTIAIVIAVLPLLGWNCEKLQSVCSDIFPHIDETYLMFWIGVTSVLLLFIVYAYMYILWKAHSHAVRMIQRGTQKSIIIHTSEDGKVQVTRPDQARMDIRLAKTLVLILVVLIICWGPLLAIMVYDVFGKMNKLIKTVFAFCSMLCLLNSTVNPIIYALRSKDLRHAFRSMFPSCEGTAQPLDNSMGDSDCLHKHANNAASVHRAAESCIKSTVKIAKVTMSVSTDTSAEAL
Chain of Cannabinoid receptor 2 (P34972 whole entry): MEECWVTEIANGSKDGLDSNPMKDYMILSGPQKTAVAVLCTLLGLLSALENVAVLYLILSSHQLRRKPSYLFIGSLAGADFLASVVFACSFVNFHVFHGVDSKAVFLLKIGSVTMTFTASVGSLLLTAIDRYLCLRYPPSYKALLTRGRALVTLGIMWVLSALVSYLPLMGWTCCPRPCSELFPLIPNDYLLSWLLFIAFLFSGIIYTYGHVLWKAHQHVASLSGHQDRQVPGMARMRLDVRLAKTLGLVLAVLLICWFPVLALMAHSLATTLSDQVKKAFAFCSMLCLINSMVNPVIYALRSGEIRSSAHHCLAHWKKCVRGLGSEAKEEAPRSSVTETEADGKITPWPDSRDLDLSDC

A word on the Ki: it is the equilibrium dissociation constant of an inhibitor or competing ligand from its target. For the compound `COC[C@@H](COC(C)=O)N(C)C(=O)CC/C=C/CCCCC(Cl)CCCCCCCl` (some centres not stated), the Ki on Cannabinoid receptor 2 is 1030 nM; at Cannabinoid receptor 1 it was 590 nM. For the same compound, the Ratio Ki in the assay filed under Homo sapiens was 2.

As for `C=CCCC/C=C/C=C(\C)CCCC/C=C/CC/C=C\C(=O)NC(CO)CO`, the Ki at Cannabinoid receptor 1 was found to be 470 nM.

In the case of `COC[C@@H](COC(C)=O)N(C)C(=O)CC/C=C/CCCCC(Cl)CCCCCC(Cl)Cl` (some centres not stated), the Ki at Cannabinoid receptor 2 was found to be 860 nM; on Cannabinoid receptor 1, 410 nM. For the same compound, in the assay listed under Homo sapiens, the Ratio Ki came out at 2.
